Structures are written as SMILES.

Drawing on patent publication US20260028365A1 (BIOGEN MA INC., priority 2022, published 2026), this text covers IC50 for 31 molecules.

The target of one test is Tyk2 (Homo sapiens (Human), UniProt P29597). The experiment in a line: pSTAT4 Cell Assay (MSD, NK92 cells).
Chain of Tyk2 (P29597 whole entry): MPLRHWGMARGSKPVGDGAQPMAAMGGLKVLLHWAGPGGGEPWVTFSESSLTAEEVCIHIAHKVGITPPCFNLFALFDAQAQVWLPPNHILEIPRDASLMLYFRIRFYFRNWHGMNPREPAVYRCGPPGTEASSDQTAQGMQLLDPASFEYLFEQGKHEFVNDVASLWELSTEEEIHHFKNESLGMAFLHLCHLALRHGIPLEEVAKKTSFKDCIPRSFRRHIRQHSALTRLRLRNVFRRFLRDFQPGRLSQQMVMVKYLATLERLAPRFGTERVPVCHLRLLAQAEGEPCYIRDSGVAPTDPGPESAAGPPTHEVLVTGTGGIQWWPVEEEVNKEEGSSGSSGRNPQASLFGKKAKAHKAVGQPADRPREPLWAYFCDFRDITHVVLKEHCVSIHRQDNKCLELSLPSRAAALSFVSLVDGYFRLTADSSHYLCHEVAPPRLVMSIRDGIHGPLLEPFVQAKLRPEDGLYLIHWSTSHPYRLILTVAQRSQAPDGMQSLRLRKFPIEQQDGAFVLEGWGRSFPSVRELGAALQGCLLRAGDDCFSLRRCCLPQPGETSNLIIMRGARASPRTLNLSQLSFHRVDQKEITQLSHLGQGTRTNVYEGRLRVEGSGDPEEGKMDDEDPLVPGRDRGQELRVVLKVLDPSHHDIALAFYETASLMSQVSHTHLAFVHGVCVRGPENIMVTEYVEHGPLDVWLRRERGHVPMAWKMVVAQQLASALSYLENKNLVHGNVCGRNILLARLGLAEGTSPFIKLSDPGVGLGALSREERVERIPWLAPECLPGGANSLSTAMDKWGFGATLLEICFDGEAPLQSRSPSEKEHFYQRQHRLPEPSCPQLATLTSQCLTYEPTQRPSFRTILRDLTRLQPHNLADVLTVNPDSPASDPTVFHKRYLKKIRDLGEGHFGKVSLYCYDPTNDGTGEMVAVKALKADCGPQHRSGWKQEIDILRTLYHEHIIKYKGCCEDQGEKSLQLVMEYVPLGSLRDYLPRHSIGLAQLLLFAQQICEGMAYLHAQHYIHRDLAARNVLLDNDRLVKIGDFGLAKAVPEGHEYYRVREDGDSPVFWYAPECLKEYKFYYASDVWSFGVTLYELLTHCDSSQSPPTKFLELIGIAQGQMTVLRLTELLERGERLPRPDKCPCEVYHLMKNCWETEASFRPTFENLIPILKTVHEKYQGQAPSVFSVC
Details: not given
The class given is cell-based. On the procedure:
The inhibitory potency of compounds of the disclosure against the Tyk2 kinase activity on STAT4 was evaluated using an MSD-platform plate-based assay format. NK92 cells natively expressing STAT4 and Tyk2 were serum-starved to reduce background phosphorylation levels, then cells were treated compounds for 1 hr with a 10-point four-fold dilution series starting at 10 μM. Cells were then stimulated with 30 ng/mL […] for 15 minutes. […] The data were normalized and the percent activity versus log concentration of compound were fitted with a 4-parameter logistic model to generate to generate IC50 curves.
By IC50 is commonly meant the midpoint of a concentration-inhibition curve. High values mean weaker potency in that assay, low ones greater potency in that assay. `CCc1cc(Nc2cc(NC(C)=O)ncc2-c2cc(CN3C[C@@H]4C[C@H]3CO4)ncn2)nc(C(C)(F)F)n1` [Example 905, N-(5-(6-(((1S,4S)-2-oxa-5-azabicyclo[2.2.1]heptan-5-yl)methyl)pyrimidin-4-yl)-4-((2-(1,1-difluoroethyl)-6-ethylpyrimidin-4-yl)amino)pyridin-2-yl)acetamide]: the IC50 fell in the range of 0.01 to 0.1 µM. Still for that read-out and setting: the same measure for `CC(=O)Nc1cc(Nc2ccnc(C(C)(F)F)n2)c(-c2csc(CC#N)n2)cn1` [Example 922, N-(5-(2-(cyanomethyl)thiazol-4-yl)-4-((2-(1,1-difluoroethyl)pyrimidin-4-yl)amino)pyridin-2-yl)acetamide]: ≤ 0.01 µM; for `CCc1cc(Nc2cc(NC(C)=O)ncc2-c2ccnc(CN3CCOCC3)n2)nc(C(C)(F)F)n1` [Example 909, N-(4-((2-(1,1-difluoroethyl)-6-ethylpyrimidin-4-yl)amino)-5-(2-(morpholinomethyl)pyrimidin-4-yl)pyridin-2-yl)acetamide]: 0.1 to 1 µM.

In the case of `CN1CCc2sc(-c3cnc(NC=O)cc3Nc3ccnc(C(C)(F)F)n3)nc2C1` [Example 796, N-(4-((2-(1,1-difluoroethyl)pyrimidin-4-yl)amino)-5-(5-methyl-4,5,6,7-tetrahydrothiazolo[4,5-c]pyridin-2-yl)pyridin-2-yl)formamide], the IC50 lay in the range of 0.01 to 0.1 µM.

Take `CC(=O)Nc1cc(Nc2cc(C)nc(C(C)(F)F)n2)c(-c2ccc(P(C)(C)=O)cn2)cn1` [Example 916, N-(4′-((2-(1,1-difluoroethyl)-6-methylpyrimidin-4-yl)amino)-5-(dimethylphosphoryl)-[2,3′-bipyridin]-6′-yl)acetamide]: the IC50 is ≤ 0.01 µM.

The test is the same for the next values; noted with them: MSD.
`CC(=O)Nc1cc(Nc2cc(C)nc(C(C)(F)F)n2)c(OCc2ccc(C)nc2)cn1` [Example 116, N-(4-((2-(1,1-difluoroethyl)-6-methylpyrimidin-4-yl)amino)-5-((6-methylpyridin-3-yl)methoxy)pyridin-2-yl)acetamide] gave an IC50 of 0.01 to 0.1 µM. The same measure, in the same setting: the same measure for `CC(=O)Nc1cc(Nc2ccnc(C(C)(F)F)n2)c(OC2CCC2)cn1` [Example 7, N-(5-cyclobutoxy-4-((2-(1,1-difluoroethyl)pyrimidin-4-yl)amino)pyridin-2-yl)acetamide]: 0.1 to 1 µM. On the same count and under the same terms, in the case of `CC(=O)Nc1cc(Nc2cc(C)nc(C(C)(F)F)n2)c(OCc2cc(C#N)ccn2)cn1` [Example 129, N-(5-((4-cyanopyridin-2-yl)methoxy)-4-((2-(1,1-difluoroethyl)-6-methylpyrimidin-4-yl)amino)pyridin-2-yl)acetamide] it was 0.01 to 0.1 µM; in that of `CC(=O)Nc1cc(Nc2cc(C)nc(C(C)(F)F)n2)c(OCC2(C)CC2)cn1` [Example 58, N-(4-((2-(1,1-difluoroethyl)-6-methylpyrimidin-4-yl)amino)-5-((1-methylcyclopropyl)methoxy)pyridin-2-yl)acetamide], 0.01 to 0.1 µM.

Molecule `CC(=O)Nc1cc(Nc2cc(C)nc(C(C)(F)F)n2)c(OCC2CCN(C)C2)cn1` (stereo not shown) [Example 480, N-(4-((2-(1,1-difluoroethyl)-6-methylpyrimidin-4-yl)amino)-5-((1-methylpyrrolidin-3-yl)methoxy)pyridin-2-yl)acetamide] displayed an IC50 of 0.01 to 0.1 µM. Molecule `CC(=O)Nc1cc(Nc2cc(C)nc(C(C)(F)F)n2)c(-c2nn(C)cc2F)cn1` [Example 616, N-(4-((2-(1,1-difluoroethyl)-6-methylpyrimidin-4-yl)amino)-5-(4-fluorO1-methyl-1H-pyrazol-3-yl)pyridin-2-yl)acetamide] yielded an IC50 of 0.01 to 0.1 µM. The same measure, in the same setting: in the case of `COc1cnc(C(C)(F)F)nc1Nc1cc(NC(C)=O)ncc1C1CC1` [Example 143, N-(5-cyclopropyl-4-((2-(1,1-difluoroethyl)-5-methoxypyrimidin-4-yl)amino)pyridin-2-yl)acetamide] it was ≥ 1 µM; in that of `CC(=O)Nc1cc(Nc2cc(C)nc(C(C)(F)F)n2)c(OCc2cc(C)no2)cn1` [Example 121, N-(4-((2-(1,1-difluoroethyl)-6-methylpyrimidin-4-yl)amino)-5-((3-methylisoxazol-5-yl)methoxy)pyridin-2-yl)acetamide], 0.01 to 0.1 µM. The same measure, in the same setting: the same measure for `COc1ccc(COc2cnc(NC(C)=O)cc2Nc2cc(C)nc(C(C)(F)F)n2)nc1` [Example 127, N-(4-((2-(1,1-difluoroethyl)-6-methylpyrimidin-4-yl)amino)-5-((5-methoxypyridin-2-yl)methoxy)pyridin-2-yl)acetamide]: ≤ 0.01 µM.

For the molecule `CCN1CCn2nc(-c3cnc(NC(C)=O)cc3Nc3cc(C)nc(C45COC(C4)C5)n3)cc2C1` [Example 544, N-(4-((2-(2-oxabicyclo[2.1.1]hexan-4-yl)-6-methylpyrimidin-4-yl)amino)-5-(5-ethyl-4,5,6,7-tetrahydropyrazolo[1,5-a]pyrazin-2-yl)pyridin-2-yl)acetamide], the IC50 was ≤ 0.01 µM.

`CC(=O)Nc1cc(Nc2cccc(C(F)CF)n2)c(-c2ccn(C)n2)cn1` (stereo not shown) [Example 149, N-(4-((6-(1,2-difluoroethyl)pyridin-2-yl)amino)-5-(1-methyl-1H-pyrazol-3-yl)pyridin-2-yl)acetamide]: the IC50 is ≤ 0.01 µM.

With `CC(=O)Nc1cc(Nc2cc(C)nc(C(C)(F)F)n2)c(OCc2cc(C)ccn2)cn1` [Example 133, N-(4-((2-(1,1-difluoroethyl)-6-methylpyrimidin-4-yl)amino)-5-((4-methylpyridin-2-yl)methoxy)pyridin-2-yl)acetamide], the IC50 is ≤ 0.01 µM. On the same count and under the same terms, in the case of `COc1cnc(NC(C)=O)cc1Nc1cc(-c2cc(F)c3nn(C)cc3c2)nc(C(C)(F)F)n1` [Example 396, N-(4-((2-(1,1-difluoroethyl)-6-(7-fluoro-2-methyl-2H-indazol-5-yl)pyrimidin-4-yl)amino)-5-methoxypyridin-2-yl)acetamide] it was 0.01 to 0.1 µM.

For the molecule `CC(=O)Nc1cc(Nc2cc(C)nc(C(C)(F)F)n2)c(OCCOC(C)(C)C)cn1` [Example 113, N-(5-(2-(tert-butoxy)ethoxy)-4-((2-(1,1-difluoroethyl)-6-methylpyrimidin-4-yl)amino)pyridin-2-yl)acetamide], the IC50 was ≤ 0.01 µM. Take `COCCOc1cc(-c2cnc(NC(C)=O)cc2Nc2cc(C)nc(C(C)(F)F)n2)ncn1` [Example 249, N-(4-((2-(1,1-difluoroethyl)-6-methylpyrimidin-4-yl)amino)-5-(6-(2-methoxyethoxy)pyrimidin-4-yl)pyridin-2-yl)acetamide]: the IC50 is 0.01 to 0.1 µM. The same measure, in the same setting: the same measure for `CC(=O)Nc1cc(Nc2cc(C)nc(C(C)(F)F)n2)c(-c2nccc(N3CCOCC3)n2)cn1` [Example 674, N-(4-((2-(1,1-difluoroethyl)-6-methylpyrimidin-4-yl)amino)-5-(4-morpholinopyrimidin-2-yl)pyridin-2-yl)acetamide]: ≥ 1 µM; for `CC(=O)Nc1cc(Nc2cc(C)nc(C(C)(F)F)n2)c(OCc2csnc2C)cn1` [Example 111, N-(4-((2-(1,1-difluoroethyl)-6-methylpyrimidin-4-yl)amino)-5-((3-methylisothiazol-4-yl)methoxy)pyridin-2-yl)acetamide]: 0.1 to 1 µM.

`COc1cnc(C(C)(F)F)nc1Nc1cc(NC(C)=O)ncc1-c1ccn(C)n1` [Example 590, N-(4-((2-(1,1-difluoroethyl)-5-methoxypyrimidin-4-yl)amino)-5-(1-methyl-1H-pyrazol-3-yl)pyridin-2-yl)acetamide] came in with an IC50 of 0.01 to 0.1 µM.

Molecule `COc1ccnc(COc2cnc(NC(C)=O)cc2Nc2cc(C)nc(C(C)(F)F)n2)c1` [Example 128, N-(4-((2-(1,1-difluoroethyl)-6-methylpyrimidin-4-yl)amino)-5-((4-methoxypyridin-2-yl)methoxy)pyridin-2-yl)acetamide] gave an IC50 of 0.01 to 0.1 µM. Still for that read-out and setting: in the case of `COc1nc(-c2cnc(NC(C)=O)cc2Nc2cc(C)nc(C(C)(F)F)n2)nn1C` [Example 609, N-(4-((2-(1,1-difluoroethyl)-6-methylpyrimidin-4-yl)amino)-5-(5-methoxy-1-methyl-1H-1,2,4-triazol-3-yl)pyridin-2-yl)acetamide] it was 0.1 to 1 µM; in that of `CC(=O)Nc1cc(Nc2cc(C)nc(C(C)(F)F)n2)c(OCc2ncccn2)cn1` [Example 134, N-(4-((2-(1,1-difluoroethyl)-6-methylpyrimidin-4-yl)amino)-5-(pyrimidin-2-ylmethoxy)pyridin-2-yl)acetamide], 0.1 to 1 µM; in that of `COCCCOc1cnc(NC(C)=O)cc1Nc1cc(C)nc(C(C)(F)F)n1` [Example 107, N-(4-((2-(1,1-difluoroethyl)-6-methylpyrimidin-4-yl)amino)-5-(3-methoxypropoxy)pyridin-2-yl)acetamide], 0.01 to 0.1 µM. The same measure, in the same setting: in the case of `CC(=O)Nc1cc(Nc2cc(C)nc(C(C)(F)F)n2)c(OCC23CC(C2)C3)cn1` [Example 100, N-(5-(bicyclo[1.1.1]pentan-1-ylmethoxy)-4-((2-(1,1-difluoroethyl)-6-methylpyrimidin-4-yl)amino)pyridin-2-yl)acetamide] it was ≤ 0.01 µM. On the same count and under the same terms, in the case of `CC(=O)Nc1cc(Nc2cc(C)nc(C(C)(F)F)n2)c(OCc2csc(C)n2)cn1` [Example 117, N-(4-((2-(1,1-difluoroethyl)-6-methylpyrimidin-4-yl)amino)-5-((2-methylthiazol-4-yl)methoxy)pyridin-2-yl)acetamide] it was ≤ 0.01 µM; in that of `CC(=O)Nc1cc(Nc2cc(C)nc(C(C)(F)F)n2)c(OCc2ccc(C#N)cn2)cn1` [Example 131, N-(5-((5-cyanopyridin-2-yl)methoxy)-4-((2-(1,1-difluoroethyl)-6-methylpyrimidin-4-yl)amino)pyridin-2-yl)acetamide], 0.01 to 0.1 µM; in that of `CC(=O)Nc1cc(Nc2cc(C)nc(C(C)(F)F)n2)c(OC[C@@H]2COC(C)(C)O2)cn1` [Example 110, (R)-N-(4-((2-(1,1-difluoroethyl)-6-methylpyrimidin-4-yl)amino)-5-((2,2-dimethyl-1,3-dioxolan-4-yl)methoxy)pyridin-2-yl)acetamide], 0.01 to 0.1 µM.
